Reference: US8410168B2, “Methods and compositions for treating ophthalmic conditions with retinyl derivatives” (Acucela, Inc., priority 2004, dated 2013)
pKd: −log10 of the molar value. “Also recorded” adds a separate entry of the source.

Legend:
[1] = HPR concentration in the RPE of treated mice; format: in vivo
Procedure: We examined the effects on HPR on enzymes or proteins of the visual cycle using in vitro biochemical assays. Specifically, the utilization of exogenous all-trans retinol by membranes prepared from bovine RPE was studied. […] Steady-state levels of HPR in the RPE (determined from mice which have been given 20 mg/kg HPR, i.p., daily for 28 days) range from 5-10 μM. With this in mind, we examined the effects of 10 μM HPR on production of all-trans retinyl esters and 11-cis retinol in assays similar to those described above. […] In the presence of endogenous retinoids, utilization of exogenous all-trans retinol is extremely low and 11-cis retinol is produced solely from the endogenous all-trans retinyl esters. […] Thus, the retinoic acids appear to affect at least two targets in the visual cycle. We have determined that HPR-induced reduction of 11-cis retinol biosynthesis occurs via LRAT inhibition and reduction in all-trans retinyl ester levels. In this situation, the isomerase enzyme is starved for substrate and 11-cis retinol production declines.
(§1) We performed an analysis of the dissociation constant (KD) for 11cRAL and HPR binding to apo-CRALBP (see FIG. 15). […] This calculation is based upon the ligand concentration necessary to fully quench the protein fluorescence. The data reveal that both 11cRAL and HPR quench apo-CRALBP fluorescence maximally at ˜1.5 μM. Thus, although apo-CRALBP is described as an 11 cis-specific retinoid binding protein, it appears to bind HPR as well.
A second target for HPR in the visual cycle was identified using in vitro biochemical assays. Lecithin retinol acyl transferase (LRAT) catalyzes the conversion of retinol into retinyl esters. LRAT is critical not only for retinol-retinyl ester homeostasis but also for generation of substrate for visual chromophore biosynthesis. The data shown in panel A of FIG. 16 illustrate the inhibitory effect of HPR on the rate of retinyl ester synthesis. […] In a separate study, we have determined that HPR concentrations in the RPE approach 10 μM with a 10 mg/kg dose of HPR.

CRALBP [2] = biological target: T1, CRALBP (Homo sapiens, UniProt P12271); test: Fluorescence quenching study of binding to CRALBP
T1 construct: made in house
Procedure: Apo-CRALBP at 0.5 μM was incubated with 1 μM of 11-cis Retinal (11cRAL), all-trans retinal (atRAL) or N-4-hydroxyphenyl retinamide (HPR) in PBS at room temperature for 1 hour. As a control, same volume of DMSO was added to the Apo-CRABLP solution. The emission spectra were measured between 290 nm to 500 nm with excitation wavelength at 280 nm and 2 nm bandpass (See FIG. 7).
Quenching of CRALBP protein fluorescence with 11-cis retinal (11cRAL). The fluorescence emission of recombinant apo-CRALBP (0.5 μM) was measured using 280 nm excitation (“no 11cRAL”).
Quenching of CRALBP protein fluorescence with HPR. The data shown were obtained using an experimental design identical to that described above. The fluorescence emission of recombinant apo-CRALBP was measured using 280 nm excitation (“no HPR”).
as §1

ABCA4−/− mice = test: HPR drug holiday after 28 days of treatment; format: in vivo, mouse
Procedure: (§2) HPR (10 mg/kg in DMSO) was administered to ABCA4−/− mice daily for a period of 28 days. Control ABCA4−/− mice received only DMSO for the same period. […] Importantly, the observed reductions in lipofuscin autofluorescence persist long after cessation of HPR therapy. HPR (10 mg/kg), or DMSO, administration was discontinued following 28 days of treatment and re-evaluated A2E and precursor levels after 2 weeks and after 4 weeks.
We examined eyecup extracts by HPLC and employed detection by absorbance and fluorimetry. Identity of the indicated peaks was confirmed by on-line spectral analysis and by co-elution with authentic standards. […] Further, the A2E and precursor (A2PE-H2 and A2PE) levels after a […] or 28-day drug holiday remained at or near the levels immediately following 28 days of treatment (i.e., ca. 50% reduction relative to control), although after the 28-day drug holiday, the amount of A2E and precursor (A2PE-H2 and A2PE) had increased by a few percentage points relative to the 12-day drug holiday levels. […] It is clear that peak fluorescence tracks with the abundance of A2E, A2PE and A2PE-H2.
This effect cannot be attributed to long-term reductions in serum retinol as serum retinol had returned to baseline 48 hours following the last HPR dose. […] Furthermore, HPR reduces serum retinol levels, which leads to a reduction in the level of retinol in the eyes of treated animals. Once the level of retinol has been reduced in the eye, there is a time lag in the subsequent increase in retinol levels in the eye. Alone or in combination, the production of A2E, A2PE and A2PE-H2 in the eye remains low despite the absence of HPR in the serum or the eye.

abcr null mutant mice = test: Lipofuscin autofluorescence in RPE and light microscopy of retina; format: in vivo, mouse; settings: 28 days of HPR
Procedure: Treatment conditions are as described above.
as §2

RBP = RBP (Homo sapiens, UniProt P02753); test: Competition binding assay, RBP-retinol/HPR, fluorescence; settings: physiological temperature (37 C)
Description: Based upon these findings, we sought to further explore the mechanism(s) of retinol reduction during HPR treatment. A tenable hypothesis is that HPR may displace retinol by competing at the retinol binding site on RBP. […] Therefore, one can measure displacement of retinol from the RBP holoprotein by observing decreases in both protein (340 nm) and retinol (470 nm) fluorescence. We performed a competition binding assay using RBP-retinol/HPR concentrations which were similar to those determined from the 14 day trial at 20 mg/kg HPR described above. […] In the control assays, decreases in retinol fluorescence were associated with concomitant increases in protein fluorescence, see FIG. 3a. This effect was determined to be due to temperature effects as the dissociation constant of RBP-retinol increases (decreased affinity) with increased time at 37 C.

CRALBP [3] = biological target: T1, CRALBP; test: Size exclusion chromatography study of binding to CRALBP; settings: 4 μM apo-CRALBP, 8 μM ligand
Procedure: Apo-CRALBP at 4 μM was incubated with 8 μM of 11cRAL, atRAL or HPR in PBS at room temperature for 1 hour. In control experiment, equivalent volume of DMSO was added to the CRALBP solution. 50 μl of each sample mixture was analyzed by BioRad Bio-Sil SEC125 Gel Filtration Column (300×7.8 mm).

T1 sequence (P12271 whole entry, species assumed): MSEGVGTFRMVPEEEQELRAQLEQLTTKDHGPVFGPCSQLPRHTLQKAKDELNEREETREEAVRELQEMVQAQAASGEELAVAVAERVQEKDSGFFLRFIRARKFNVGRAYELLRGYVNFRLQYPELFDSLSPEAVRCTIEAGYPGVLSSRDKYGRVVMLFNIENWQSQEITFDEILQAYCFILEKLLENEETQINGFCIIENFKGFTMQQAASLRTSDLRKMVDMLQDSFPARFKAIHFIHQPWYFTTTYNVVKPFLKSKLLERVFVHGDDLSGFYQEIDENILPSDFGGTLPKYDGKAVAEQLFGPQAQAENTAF

## CC1=C(/C=C/C(C)=C/C=C/C(C)=C/C(=O)Nc2ccc(O)cc2)C(C)(C)CCC1 [HPR, N-(4-hydroxyphenyl)retinamide]
[1]; 10 mg/kg dose of HPR
  HPR concentrations in the RPE: ~10 µM
[1]; BL6/129, mouse, RPE (retinal pigment epithelium), intraperitoneal, 20 mg/kg HPR, i.p., daily for 28 days, read-out: steady-state levels of HPR in the RPE
  concentration at 28 days: 5 to 10 µM
[1]; even at the lowest dose of 2.5 mg/kg
  concentrations of HPR in the RPE during the animal trials: exceed 30 nM
CRALBP [2]
  concentration of maximal quenching of apo-CRALBP fluorescence: ~1.5 µM
CRALBP [2]; 0.5 μM apo-CRALBP, 1 μM ligand, 1 hour, vs DMSO
  quenching of CRALBP fluorescence emission: lowest
CRALBP [2]; 0.5 μM recombinant apo-CRALBP, 280 nm excitation
  concentration dependence of CRALBP protein fluorescence quenching: concentration dependent manner
CRALBP [2]; transformation of fluorescence quenching data, read-out: dissociation constant (KD) for binding to apo-CRALBP
  pKd: ~7.52
ABCA4−/− mice; 10 mg/kg 28 days, then 12- or 28-day drug holiday
  reduction of A2E and precursor (A2PE-H2 and A2PE) levels relative to control: ca. 50%
ABCA4−/− mice; 28-day drug holiday
  detection in the eyes after drug holiday: unable to detect
ABCA4−/− mice; mouse, in vivo
  time for serum retinol to return to baseline after the last HPR dose: 48 h
Abcr null mutant mice
  lipofuscin autofluorescence in the RPE: significantly reduces; also recorded: comparable to levels observed in untreated wild type mice
  retinal morphology by light microscopy: No aberrant morphology or compromise of the integrity in retinal cytostructure was observed; also recorded: no alteration of retina cytostructure or morphology
RBP
  displacement of retinol from RBP-retinol holoprotein: efficiently displaces retinol
CRALBP [3]
  ligand bound to CRALBP (monomer elution peak absorbance): only small amount of HPR is bound to CRALBP
